Assays:
[1] = Solubility of C18-ceramide itself in aqueous solution; assay type: physicochemical; settings: without lipid nanoparticles
[2] = tested on: MDA-MB-468 cells; assay: Cell viability, WST-8 reagent, absorbance at 450nm; assay type: cell-based; settings: ceramide alone dispersed in aqueous solution in the same amount as in Examples 1 and 2, column purified
Procedure: (§1) MDA-MB-231 and MDA-MB-468 cells were cultured at 37°C under 10% fetal bovine serum (FBS) and ATCC modified RPMI medium (Gibco) supplemented with 1% penicillin/streptomycin, 5% CO2.
(§2) For experiments, lipid nanoparticles prepared at each concentration of C18-ceramide were respectively treated (the number of particles: 4.5 x 10^8 ± 2.05 x 10^8) to MDA-MB-231 and MDA-MB-468 cells which were inoculated into a 96-well plate (1.5 x 10^3 cells/well). After 24 hours of incubation, WST-8 reagent (Dojindo) was added to the medium at 37°C for 1 hour. Absorbance was measured at 450nm using a microplate reader (BioTek). Thereafter, cell viability was confirmed by measuring absorbance every 24 hours.
In addition, the cell viability of MDA-MB-468 cells was reduced to 53% when lipid nanoparticles of 5 mM C18-ceramide were treated (FIG. 9b).

[3] = tested on: apoptosis-related proteins (BAX, BAD, BCL2, and cleaved caspase3); assay: Western blotting of apoptosis-related proteins in MDA-MB-468 cells; assay type: cell-based; settings: ceramide alone dispersed in aqueous solution in the same amount as in Examples 1 and 2, column purified
Procedure: MDA-MB-468 cells were cultured in ATCC modified RPMI medium (Gibco) supplemented with 10% fetal bovine serum (FBS) and 1% penicillin/streptomycin at 37°C under 5% CO2.
For experiments, MDA-MB-468 cells were seeded onto 60 mm^2 cell culture plates (1.3 x 10^6 cells/plate). After 24 hours, LNP prepared at different concentrations of C18-ceramide was calculated and added to 2.5 mL opti-MEM medium per well such that 2.48 x 10^11±2.75 x 10^10 particles were included in the medium. The medium containing LNP was treated and incubated at 37°C for 24 hours.
Thereafter, the cells were collected, and western blotting was performed. For this purpose, MDA-MB-468 cells treated with LNP were lysed in RIPA buffer containing a protease inhibitor and a phosphatase inhibitor (Sigma). Total cell lysates were quantified using the BCA protein assay kit (Thermo Scientific). Next, the cell lysate (50 µg) was loaded on a 4-15% gradient SDS-PAGE gel (Biorad) under denaturing conditions and transferred to a PVDF membrane (iBlot2 Dry Blotting System, Thermo Scientific). […]
The secondary antibody conjugated with HRP was reacted at room temperature for 2 hours, and then the membrane was treated with Western ECL, and the luminescence image was analyzed using LAS500 (GE Healthcare), and the results are shown in FIG. 10.

[4] = tested on: MDA-MB-231 cells; assay: Cell viability, WST-8 reagent, absorbance at 450nm; assay type: cell-based; settings: ceramide alone dispersed in aqueous solution in the same amount as in Examples 1 and 2, column purified
Procedure: as §1, §2

solubility in an aqueous solution [1]: insoluble
Structure (SMILES): CCCCCCCC/C=C\CCCCCCCC(=O)N[C@@H](CO)[C@H](O)[C@H](O)CCCCCCCCCCCCCC (stereo in doubt) [C18-ceramide, N-Oleoyl-phytosphingosine]
cell survival rate [2]: no change | antitumor-related protein expression [3]: no change | cell survival rate [4]: no change

Source: patent EP4566594A1, “LIPID NANOPARTICLES COMPRISING LONG-CHAIN CERAMIDE AND COMPOSITION FOR CELL DEATH COMPRISING SAME” (Croda Korea Limited, priority 2022, dated 2024)
